Test results reported in ChEMBL document CHEMBL1201862, “PubChem BioAssay data set” (2004).
Activity calls are given as the source filed them.

Tests used:
[1] = biological target: T1, Bifunctional protein GlmU (Mycobacterium tuberculosis, UniProt P9WMN3); experiment: Inhibitors of Mycobacterial Glucosamine-1-phosphate acetyl transferase (GlmU). Secondary screen.; parameters: species or system Mycobacterium tuberculosis H37Rv
T1 sequence (P9WMN3 whole entry): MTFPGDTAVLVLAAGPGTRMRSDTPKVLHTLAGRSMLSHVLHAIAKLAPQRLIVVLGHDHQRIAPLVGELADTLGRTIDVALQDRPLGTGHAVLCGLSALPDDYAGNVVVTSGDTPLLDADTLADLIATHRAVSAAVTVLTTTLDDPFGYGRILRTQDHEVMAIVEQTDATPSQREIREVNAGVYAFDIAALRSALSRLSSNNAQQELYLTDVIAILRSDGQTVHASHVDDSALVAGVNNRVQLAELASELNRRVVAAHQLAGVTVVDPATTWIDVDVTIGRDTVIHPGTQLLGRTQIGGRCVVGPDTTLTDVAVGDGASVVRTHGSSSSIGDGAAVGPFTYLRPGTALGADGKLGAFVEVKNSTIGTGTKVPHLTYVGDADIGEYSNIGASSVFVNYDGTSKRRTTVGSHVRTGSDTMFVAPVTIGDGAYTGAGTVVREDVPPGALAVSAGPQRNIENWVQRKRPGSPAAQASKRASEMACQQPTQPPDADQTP

[2] = inhibitors of Bluetongue virus cytopathic effect, confirmation, arbovirus, BSR cells (AID 1250); format: functional;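 further: protection from viral cytopathic effect measured as cell viability by ATP luminescence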
[3] = biological target: T2, RNA-binding protein pos-1 (Caenorhabditis elegans, UniProt G5EF15); experiment: inhibitors of POS-1/mex-3 RNA binding, dose response, biochemical, fluorescence polarization (AID 1964);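 further: purified POS-1 fused to maltose binding protein made in E. coli; potency of compounds blocking POS-1 binding to fluorescent RNA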
T2 sequence (G5EF15 whole entry): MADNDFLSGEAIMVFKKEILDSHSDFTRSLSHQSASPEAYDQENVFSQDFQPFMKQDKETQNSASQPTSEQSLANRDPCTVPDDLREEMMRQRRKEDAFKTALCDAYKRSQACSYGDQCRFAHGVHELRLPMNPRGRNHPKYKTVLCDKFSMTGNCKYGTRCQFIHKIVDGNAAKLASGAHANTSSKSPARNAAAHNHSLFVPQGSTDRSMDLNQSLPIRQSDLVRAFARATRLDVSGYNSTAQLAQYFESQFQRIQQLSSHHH

[4] = biological target: Heat shock protein HSP 90-alpha (Homo sapiens, UniProt P07900); format: functional, organism-based
[5] = biological target: T3, Zinc finger protein mex-5 (Caenorhabditis elegans, UniProt Q9XUB2); experiment: MEX-5/TCR-2 RNA interaction inhibitors, dose response, biochemical, C. elegans, fluorescence polarization (AID 1960)
T3 sequence (Q9XUB2 whole entry): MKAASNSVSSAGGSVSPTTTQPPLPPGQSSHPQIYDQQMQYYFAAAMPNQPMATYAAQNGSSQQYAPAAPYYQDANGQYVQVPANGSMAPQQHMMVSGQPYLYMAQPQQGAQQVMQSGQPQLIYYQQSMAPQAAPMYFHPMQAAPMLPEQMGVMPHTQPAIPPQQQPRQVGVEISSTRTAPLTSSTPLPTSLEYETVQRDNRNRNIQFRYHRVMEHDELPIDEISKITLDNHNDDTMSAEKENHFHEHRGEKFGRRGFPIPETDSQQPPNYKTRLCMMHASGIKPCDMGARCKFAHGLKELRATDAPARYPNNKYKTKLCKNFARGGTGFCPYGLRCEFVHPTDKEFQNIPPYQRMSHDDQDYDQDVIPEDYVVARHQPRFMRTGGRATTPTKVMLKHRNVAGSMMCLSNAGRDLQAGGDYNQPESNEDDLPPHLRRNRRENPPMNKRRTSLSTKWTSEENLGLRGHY

Cytochrome P450 2D6 = Cytochrome P450 2D6 (Homo sapiens, UniProt P10635); experiment: qHTS Assay for Inhibitors and Substrates of Cytochrome P450 2D6. [Related pubchem assays: 410 ]; format: ADME; settings: read-out: Potency
Sequence of Cytochrome P450 2D6 (P10635 whole entry): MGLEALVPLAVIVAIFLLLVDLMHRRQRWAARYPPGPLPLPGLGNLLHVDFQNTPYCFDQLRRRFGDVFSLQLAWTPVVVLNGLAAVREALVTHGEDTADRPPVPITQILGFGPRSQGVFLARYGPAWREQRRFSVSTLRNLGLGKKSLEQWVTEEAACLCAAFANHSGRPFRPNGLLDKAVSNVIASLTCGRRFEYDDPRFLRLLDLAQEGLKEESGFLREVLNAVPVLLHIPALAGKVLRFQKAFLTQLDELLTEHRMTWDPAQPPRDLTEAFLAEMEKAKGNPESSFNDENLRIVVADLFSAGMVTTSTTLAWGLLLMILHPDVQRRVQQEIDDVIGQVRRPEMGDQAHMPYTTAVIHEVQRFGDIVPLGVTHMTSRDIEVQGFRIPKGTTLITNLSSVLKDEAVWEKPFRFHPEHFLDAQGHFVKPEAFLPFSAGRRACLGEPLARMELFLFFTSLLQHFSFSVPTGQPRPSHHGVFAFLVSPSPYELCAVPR

Cytochrome P450 2C19 = Cytochrome P450 2C19 (Homo sapiens, UniProt P33261); experiment: qHTS Assay for Inhibitors and Substrates of Cytochrome P450 2C19. [Related pubchem assays: 410 ]; format: ADME; settings: read-out: Potency
Sequence of Cytochrome P450 2C19 (P33261 whole entry): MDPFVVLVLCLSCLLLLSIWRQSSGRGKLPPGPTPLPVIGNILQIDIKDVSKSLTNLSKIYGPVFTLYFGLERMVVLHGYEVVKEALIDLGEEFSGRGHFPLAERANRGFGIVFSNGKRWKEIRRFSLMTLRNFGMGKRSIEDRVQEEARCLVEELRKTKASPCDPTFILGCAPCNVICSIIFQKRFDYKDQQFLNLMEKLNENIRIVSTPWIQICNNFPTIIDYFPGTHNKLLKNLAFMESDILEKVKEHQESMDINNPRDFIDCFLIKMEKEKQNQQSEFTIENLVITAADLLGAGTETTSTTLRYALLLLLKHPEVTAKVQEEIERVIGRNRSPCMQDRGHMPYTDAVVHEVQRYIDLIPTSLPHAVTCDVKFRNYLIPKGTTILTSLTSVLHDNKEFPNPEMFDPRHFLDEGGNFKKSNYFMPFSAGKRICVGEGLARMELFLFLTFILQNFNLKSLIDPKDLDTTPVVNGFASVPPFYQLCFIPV

Estrogen receptor beta [6] = biological target: T4, Estrogen receptor beta (Homo sapiens, UniProt Q92731);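 further: recombinant ER-beta bound to coactivator SRC1 peptide in presence of estradiol agonist; inhibitors block coactivator peptide binding and lower the FRET signal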
T4 sequence (Q92731 whole entry): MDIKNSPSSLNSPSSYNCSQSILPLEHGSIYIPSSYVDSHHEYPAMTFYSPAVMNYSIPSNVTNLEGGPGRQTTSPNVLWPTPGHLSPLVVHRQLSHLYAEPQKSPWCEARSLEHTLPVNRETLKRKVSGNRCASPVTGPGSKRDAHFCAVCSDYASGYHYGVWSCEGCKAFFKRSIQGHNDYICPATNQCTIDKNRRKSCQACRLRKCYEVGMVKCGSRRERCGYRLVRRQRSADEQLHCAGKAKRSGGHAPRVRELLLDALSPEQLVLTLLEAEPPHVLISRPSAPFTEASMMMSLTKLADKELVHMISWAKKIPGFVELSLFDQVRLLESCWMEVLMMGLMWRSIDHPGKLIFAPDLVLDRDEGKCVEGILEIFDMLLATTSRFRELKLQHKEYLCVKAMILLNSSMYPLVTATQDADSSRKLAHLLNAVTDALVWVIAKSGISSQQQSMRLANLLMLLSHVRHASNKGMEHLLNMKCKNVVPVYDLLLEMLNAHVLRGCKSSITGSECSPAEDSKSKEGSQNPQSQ

Estrogen receptor = biological target: T5, Estrogen receptor (Homo sapiens, UniProt P03372);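 further: potency for inhibiting coactivator peptide recruitment to the receptor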
T5 sequence (P03372 whole entry): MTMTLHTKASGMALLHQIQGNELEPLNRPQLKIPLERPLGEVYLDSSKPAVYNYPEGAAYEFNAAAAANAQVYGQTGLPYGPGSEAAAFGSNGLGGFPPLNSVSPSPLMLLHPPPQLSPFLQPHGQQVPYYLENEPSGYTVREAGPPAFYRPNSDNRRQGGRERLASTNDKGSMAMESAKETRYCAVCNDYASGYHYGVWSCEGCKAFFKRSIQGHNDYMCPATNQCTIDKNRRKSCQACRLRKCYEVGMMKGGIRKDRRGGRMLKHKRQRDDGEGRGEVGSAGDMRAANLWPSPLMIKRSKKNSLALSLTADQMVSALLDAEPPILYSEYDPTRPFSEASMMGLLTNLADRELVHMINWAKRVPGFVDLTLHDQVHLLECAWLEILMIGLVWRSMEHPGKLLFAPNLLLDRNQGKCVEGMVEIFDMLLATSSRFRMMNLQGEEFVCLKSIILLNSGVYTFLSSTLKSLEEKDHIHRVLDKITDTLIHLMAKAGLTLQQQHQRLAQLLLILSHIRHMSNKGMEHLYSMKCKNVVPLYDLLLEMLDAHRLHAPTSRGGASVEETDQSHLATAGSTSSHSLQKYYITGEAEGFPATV

Estrogen receptor beta [7] = biological target: T4, Estrogen receptor beta; experiment: ERβ–SRC-3 coactivator interaction inhibitors, confirmation, orthogonal assay, biochemical, ELISA, streptavidin-HRP readout (AID 1060)
NADPH oxidase 1 = NADPH oxidase 1 (Homo sapiens, UniProt Q9Y5S8); format: functional, cell-based;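 further: Cell-based assay with luminescence read-out, IC50 derived from inhibitor dose-response curves; intracellular ROS from endogenous NOX1 in intact HT29 colon cancer cells; potency of inhibitors that lower the ROS luminescence signal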
Sequence of NADPH oxidase 1 (Q9Y5S8 whole entry): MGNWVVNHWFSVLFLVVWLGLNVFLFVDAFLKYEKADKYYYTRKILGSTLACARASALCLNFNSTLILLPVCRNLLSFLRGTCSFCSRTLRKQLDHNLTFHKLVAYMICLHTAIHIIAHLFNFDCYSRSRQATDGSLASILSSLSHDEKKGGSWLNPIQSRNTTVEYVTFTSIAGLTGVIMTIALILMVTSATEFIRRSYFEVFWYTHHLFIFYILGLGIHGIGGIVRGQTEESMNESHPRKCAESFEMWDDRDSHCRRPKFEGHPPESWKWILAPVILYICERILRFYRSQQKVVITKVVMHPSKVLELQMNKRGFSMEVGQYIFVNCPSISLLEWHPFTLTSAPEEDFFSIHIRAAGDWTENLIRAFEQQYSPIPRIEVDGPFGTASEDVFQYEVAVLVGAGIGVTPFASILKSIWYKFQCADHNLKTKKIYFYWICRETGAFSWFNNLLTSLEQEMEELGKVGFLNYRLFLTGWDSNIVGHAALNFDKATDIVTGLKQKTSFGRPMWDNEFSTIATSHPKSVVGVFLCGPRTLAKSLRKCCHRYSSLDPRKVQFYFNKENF

[8] = Luminescence Cell-Based Dose Confirmation HTS to Identify Inhibitors of Polyadenylation.; format: functional
[9] = biological target: Neuropeptide Y receptor type 1 (Homo sapiens, UniProt P25929); format: functional;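 further: HEK293 cells with a CNG channel challenged with NPY then isoproterenol; potency as antagonist that reverses NPY suppression of cAMP signal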
Sequence of Neuropeptide Y receptor type 1 (P25929 whole entry): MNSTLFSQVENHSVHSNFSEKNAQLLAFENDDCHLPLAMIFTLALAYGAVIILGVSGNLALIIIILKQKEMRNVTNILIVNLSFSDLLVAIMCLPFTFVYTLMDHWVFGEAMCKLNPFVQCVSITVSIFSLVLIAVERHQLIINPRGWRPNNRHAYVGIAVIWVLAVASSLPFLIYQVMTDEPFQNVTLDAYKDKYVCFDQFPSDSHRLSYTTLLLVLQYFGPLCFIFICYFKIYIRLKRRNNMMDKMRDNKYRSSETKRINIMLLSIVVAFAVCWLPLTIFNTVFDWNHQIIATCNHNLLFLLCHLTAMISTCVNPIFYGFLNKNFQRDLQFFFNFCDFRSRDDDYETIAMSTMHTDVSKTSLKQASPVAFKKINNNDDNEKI

[10] = inhibitors of intracellular T. cruzi replication, confirmation, NIH3T3 host cells, beta-gal luminescence (AID 2044); format: functional, cell-based;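 further: intracellular parasites grown in NIH/3T3 mouse fibroblasts as host cells; luminescent beta-galactosidase reporter signal from transgenic T. cruzi replicating inside host cells; inhibitors lower the luminescence signal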
[11] = biological target: Neuropeptide Y receptor type 2 (Homo sapiens, UniProt P49146); format: functional, cell-based;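 further: HEK293 cells expressing the receptor and a CNG channel; stimulus was NPY near EC95 followed by isoproterenol to raise cAMP; antagonist potency measured as restoring cAMP signal that NPY suppresses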
Sequence of Neuropeptide Y receptor type 2 (P49146 whole entry): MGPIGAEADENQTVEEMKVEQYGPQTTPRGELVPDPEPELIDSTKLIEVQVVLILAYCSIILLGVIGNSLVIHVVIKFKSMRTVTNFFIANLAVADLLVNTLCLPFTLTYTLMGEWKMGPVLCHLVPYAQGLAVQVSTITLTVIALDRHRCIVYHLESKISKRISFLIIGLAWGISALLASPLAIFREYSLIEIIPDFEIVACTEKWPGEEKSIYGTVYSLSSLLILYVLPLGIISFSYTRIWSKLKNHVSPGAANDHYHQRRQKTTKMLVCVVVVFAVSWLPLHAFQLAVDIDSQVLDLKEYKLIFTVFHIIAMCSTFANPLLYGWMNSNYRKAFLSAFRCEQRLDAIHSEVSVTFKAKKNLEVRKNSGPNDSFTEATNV

[12] = cytotoxicity toward NIH3T3 fibroblasts, dose response, counter-screen, cell-based, ATP luminescence, mouse fibroblasts (AID 2010); format: functional;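 further: cells exposed to compound for about 90 hours before reading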

SMILES: Cc1cc(/C=c2\sc3nc4ccccc4n3c2=O)c(C)n1-c1ccc(C(=O)O)cc1
- IC50 [1]: 171 µM (active)
- IC50 [2]: 25.8 µM (active)
- EC50 [3]: > 300 µM (not active)
- AC50 [4]: 24.5 µM (active)
- EC50 [5]: > 300 µM (not active)

SMILES: COC(=O)NC(/C(C(=O)OC)=C(\C)NCc1ccccc1)c1cccc(F)c1 (stereo unspecified)
- AC50 (Cytochrome P450 2D6): 5.01 µM (inconclusive)
- AC50 (Cytochrome P450 2C19): 7.94 µM (inconclusive)

SMILES: Cc1ccc(OCc2ccoc2C(=O)O)cc1C
- IC50 (Estrogen receptor beta [6]): 5.86 µM (active)
- IC50 (Estrogen receptor): 25.4 µM (active)
- IC50 (Estrogen receptor beta [7]): < 0.023 µM (not active)

SMILES: COc1ccc(/C=N/Nc2c(Cl)cncc2Cl)c(OC)c1OC
- IC50 (NADPH oxidase 1): > 17 µM (not active)

SMILES: COc1ccccc1N1CCN(C(=O)CCNS(=O)(=O)c2ccc(Br)s2)CC1
- EC50 [8]: > 120 µM (not active)

SMILES: Cc1ccccc1N1CCN(CCCOc2ccc3c(C)cc(=O)oc3c2)CC1
- IC50 [9]: > 35 µM (not active)
- EC50 [10]: 0.124 µM (active)
- IC50 [11]: > 35 µM (not active)
- EC50 [12]: 9.32 µM (active)
